Reference: patent KR20240014570A, “양전하성 응집-유도 방출 화합물 및 이의 용도” (priority 2020, dated 2022)

Legend:
[1] = system: S.aureus (그람양성, ATCC 25923); assay: Photodynamic antibacterial effect, agar plate colonies; assay type: cell-based; conditions: 1 μM; white light 25 mW/cm2, 10 min
[2] = system: Gram-negative bacteria (그람음성균): E.coli, ESBL-EC; assay type: cell-based; conditions: 1 μM; white light 25 mW/cm2, 10 min
all strains (모든 균주) = assay: Photodynamic antibacterial effect, all strains; assay type: cell-based; conditions: 3 μM, with or without white light
[3] = system: ESBL E.coli (ESBL-EC, 그람 음성, ATCC BAA-198); conditions: same conditions: 3 μM, white light 25 mW/cm2, 10 min
[4] = system: ESBL E.coli (ESBL-EC, 그람 음성, ATCC BAA-198); assay: microbe, parasite or virus in culture; conditions: Escherichia coli, ATCCBAA198, 10 min, read-out: inhibition of ESBL-EC growth

| Structure (SMILES) | photodynamic antibacterial activity against Gram-positive bacteria [1] | photodynamic antibacterial effect against Gram-negative bacteria [2] | bacterial colonies (all strains (모든 균주)) | photodynamic antibacterial effect [3] | inhibition at 3 µM [4] [%] |
| --- | --- | --- | --- | --- | --- |
| C=Cc1c(C)c2cc3nc(c(CC(=O)O)c4[nH]c(cc5nc(cc1[nH]2)C(C)=C5CC)c(C)c4C(=O)O)C(CCC(=O)O)C3C (stereo not shown) [Ce6] | 광역학적 항균 활성을 보였지만 | 유의한 효과를 확인할 수 없었다 | – | – | – |
| C(=Cc1ccnc2ccccc12)c1ccc(-c2ccc(N(c3ccccc3)c3ccccc3)cc2)s1 [DQVTA] | – | – | 변하지 않음 | – | – |
| CN(C)c1ccc2nc3ccc(=[N+](C)C)cc-3sc2c1 [MB, 메틸렌 블루] | 광역학적 항균 활성을 보였지만 | 유의한 효과를 확인할 수 없었다 | – | 유의한 광역학적 항균 효과를 나타내지 않았고 | ~50 |
